Data reported in US20110124678A1, “TREATMENT WITH ALPHA 7-SELECTIVE LIGANDS” (Targacept, Inc., priority 2007, published 2011).
Entries after “also recorded” stand apart in the source; their conditions may differ.

Legend:
[1] = target: T1, human α7 nicotinic receptor (Homo sapiens, UniProt P36544); assay: electrophysiology functional assay in Xenopus laevis oocytes; assay type: cell-based; conditions: Xenopus laevis oocytes transiently expressing human α7 nicotinic receptor
T1 construct: expressed in transfected cells; host or cells: Xenopus laevis oocytes
T1 sequence (P36544 23-502): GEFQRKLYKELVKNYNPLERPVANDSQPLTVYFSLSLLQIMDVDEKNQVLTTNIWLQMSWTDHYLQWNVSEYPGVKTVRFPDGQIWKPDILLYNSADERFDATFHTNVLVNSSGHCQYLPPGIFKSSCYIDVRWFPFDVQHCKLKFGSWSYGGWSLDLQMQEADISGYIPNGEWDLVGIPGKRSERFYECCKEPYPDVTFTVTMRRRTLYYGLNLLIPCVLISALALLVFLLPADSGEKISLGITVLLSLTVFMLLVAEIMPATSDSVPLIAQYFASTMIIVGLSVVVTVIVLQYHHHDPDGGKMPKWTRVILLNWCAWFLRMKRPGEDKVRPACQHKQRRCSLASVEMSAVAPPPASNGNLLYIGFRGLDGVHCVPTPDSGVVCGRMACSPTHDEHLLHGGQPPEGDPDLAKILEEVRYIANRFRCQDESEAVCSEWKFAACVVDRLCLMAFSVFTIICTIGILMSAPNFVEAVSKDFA

db/db mice [2] = assay: metabolic phenotyping of obese db/db mice (PTP1B wild type or knockout) treated with α7 agonist; assay type: in vivo; conditions: for Glucose Tolerance Test (GTT): fat db/db PTP-1B WT mice; for plasma TNFα / plasma blood glucose (BG) / plasma glycosylated hemoglobin (Hb1ac) / plasma triglycerides (TG) / body mass / food consumption: fat db/db mice; for plasma triglycerides (TG): PTP-1B wild type; for body mass / food consumption: increase vs lean; for weight gain: obese db− mice, seven weeks of treatment; for food intake decrease induced by the α7 agonist / treatment-induced decrease in plasma glucose: antagonist or inhibitor given with α7 agonist; for body weight gain / weight loss induced by the α7 agonist: antagonist or inhibitor given with α7 agonist (MLA 3 mg/kg gavage; AG-490 1 mg/kg IP)
Excerpt: Body Weight Gain and Food Intake. Several protein tyrosine phosphatases (PTPases) such as PTP1B, LAR, SHP-2 and PTEN have been implicated in the development of insulin resistance.
α7 agonist on Obesity. Animal Models: Parental strains of mice used in these studies were the leptin receptor deficient db/db mice on a C57BL6 background obtained from Jackson Laboratories and PTP1B-null mice on a mixed C57BL6/Balb C background from Dr. Michel Tremblay at the Cancer Institute at McGill University in Montreal, Canada. Because obese db/db mice are infertile, mice were generated as dual heterozygotes, heterozygous for both the mutant leptin receptor and the deleted PTP1B. Dual heterozygotes were interbred, producing 1:4 obese mice and 1:4 PTP-1B null mice. In this breeding configuration 1:16 were dual KO mice. In the fourth generation, mice heterozygous for both genes were bred to PTP-1B null mice heterozygous for the mutant db allele. In this breeding configuration 1:4 mice were obese and 1:8 were dual KO mice. For reasons of parsimony, heterozygotes were preferred to wild-types over controls. Dual heterozygous littermates were used as lean controls and littermates heterozygous for db were used as lean PTP1B KO controls.
Mouse genotyping: At 3 weeks of age, DNA was obtained by tail clip. The genomic DNA from tail clip was used to screen for the presence of the mutant leptin receptor and deletion cassette of PTP-1B using the Polymerase Chain Reaction. Specific genotypes were determining by resolving PCR products with agarose gel electrophoresis. Deletion of PTP-1B was verified by Western analysis using an anti-PTP-1B antibody from Upstate Biotechnology.
In selected cohorts, the α7 antagonist MLA was also given via gavage, concurrently, at 3 mg/kg daily. The JAK2 kinase inhibitor (AG-490) was administered intraperitoneally (IP) at 1 mg/kg daily. Fasting glucose was measured once a week after food withdrawal, with a Precision XL glucometer using tail vein bleeding. HbA1c levels were also measured from these samples with the A1C kit from Metrika, Inc. To assess glucose tolerance, the mice were anesthetized with 2% isoflurane and the left carotid artery and jugular vein cannulated after an overnight fast. A 10 mg bolus of glucose was injected intravenously (iv) via the jugular vein and blood glucose measured every 5 minutes for 40 minutes in a drop of blood from the carotid line. For measurements of blood plasma analytes, a separate group of fasted mice were anesthetized by isoflurane in a rapid induction chamber and swiftly decapitated. Blood was collected in heparin and rapidly centrifuged at 4° C. to remove cells and to obtain plasma, and the samples were frozen for later analyses. Plasma TNF-α concentrations were determined using ELISA assay kits from eBioscience and plasma triglyceride levels were determined using the L-Type TG H test (Wako Diagnostics), an in vitro assay for the quantitative determination of triglycerides in serum or plasma. All data are expressed as mean and SEM. Differences among all groups were compared by One Way ANOVA.

db/db mice [3] = assay: simvastatin and Compound A in db/db mice, metabolic phenotyping; assay type: in vivo; conditions: fat db/db mice, statin study
Protocol: Animal Models and Metabolic Phenotyping: […] Growth rates of mice were generated by measuring body weight twice weekly for 10 weeks. Daily food intake was measured in mice metabolic cages obtained from Fisher. To assess glucose tolerance, mice were anesthetized with 2% isoflurane and the left carotid artery and jugular vein cannulated after an overnite fast. Fasting blood glucose was assessed as the initial two measurements in the anesthetized mice. A second measurement was used to determine HbA1c levels using the […] kit from Metrika Inc. A 10 mg bolus of glucose was injected into each mouse and blood glucose measure by a drop of blood from the carotid line every 5 minutes for 40 minutes. Glucose was measured with a Precision XL glucometer. At the end of the experiment mice were euthanized by isoflurane overdose. In a second group of mice, fasted mice were anesthetized by isofluorance in a rapid induction chamber and swiftly decapitated. Trunk blood was collected in heparin and rapidly centrifuged to remove blood cells and obtain plasma. Samples were then collected for analyses. Plasma cholesterol, free fatty acids and triglycerides were determined using colorimetric assays from Wako Chemical while plasma TNFα concentration was determined using ELISA assay kits from eBioscience.

[4] = difference between genotypes under treatment
[5] = obese mice, antagonist given with α7 agonist

Compound	Glucose Tolerance Test (GTT) (db/db mice [2])	plasma TNFα (db/db mice [2])	plasma blood glucose (BG) (db/db mice [2])	plasma glycosylated hemoglobin (Hb1ac) (db/db mice [2])	plasma triglycerides (TG) (db/db mice [2])	body mass (db/db mice [2])	food consumption (db/db mice [2])	weight gain (db/db mice [2])	food intake decrease induced by the α7 agonist (db/db mice [2]; obese mice)	treatment-induced decrease in plasma glucose (db/db mice [2]; obese mice)	body weight gain / weight loss induced by the α7 agonist (db/db mice [2]; obese mice)	further results
O=C(N[C@@H]1C2CCN(CC2)[C@H]1Cc1cccnc1)c1cc2ccccc2o1 (single isomer, unassigned) [Compound C]	normalize insulin resistance glucose tolerance test; also recorded: significant increase in deposition	reduce pro-inflammatory cytokines; also recorded: significantly inhibited	normalize glucose levels; also recorded: significantly inhibited	decrease glycated hemoglobin; also recorded: significantly inhibited	reduce triglycerides; also recorded: significantly inhibited	significantly inhibited	significantly inhibited	reduce weight gain				Emax [1]: > 50%; body mass, fat wild type vs fat PTP-1B KO (db/db mice [2]; [4]): no significant difference; food consumption, fat wild type vs fat PTP-1B KO (db/db mice [2]; [4]): no significant difference; plasma blood glucose, fat wild type vs fat PTP-1B KO (db/db mice [2]; [4]): no significant difference
N#C/C(=C/c1ccc(O)c(O)c1)C(=O)NCc1ccccc1 [AG-490, reference compound]									significantly inhibited; also recorded: partially inhibits effects of Compound A	significantly prevented	significantly inhibited	
Cc1ccc(C(=O)N[C@@H]2C3CCN(CC3)[C@H]2Cc2cccnc2)s1 [Compound A, 5-methyl-N-[(2S,3R)-2-(pyridin-3-ylmethyl)-1-azabicyclo[2.2.2]oct-3-yl]thiophene-2-carboxamide]	normalize insulin resistance glucose tolerance test	reduce pro-inflammatory cytokines	normalize glucose levels	decrease glycated hemoglobin	reduce triglycerides			reduce weight gain				% glycated hemoglobin (% Hb1ac) (db/db mice [3]): significantly inhibited; body mass (db/db mice [3]): significantly inhibited; food consumption (db/db mice [3]): significantly inhibited; plasma TNFα (db/db mice [3]): significantly inhibited; plasma blood glucose (BG) (db/db mice [3]): significantly inhibited; plasma cholesterol (Chol) (db/db mice [3]): significantly inhibited; plasma triglycerides (TG) (db/db mice [3]): significantly inhibited
O=C(N[C@@H]1C2CCN(CC2)[C@H]1Cc1cccnc1)c1ccc(-c2ccccn2)s1 [Compound B, (2S,3R)—N-(2-((3-pyridinyl)methyl)-1-azabicyclo[2.2.2]oct-3-yl)-5-(2-pyridinyl)thiophene-2-carboxamide]	normalize insulin resistance glucose tolerance test	reduce pro-inflammatory cytokines; also recorded: significantly inhibited	normalize glucose levels; also recorded: significantly inhibited	decrease glycated hemoglobin; also recorded: significantly inhibited	reduce triglycerides; also recorded: significantly inhibited	significantly inhibited	significantly inhibited	reduce weight gain				
CCN1C[C@]2(COC(=O)c3ccccc3N3C(=O)C[C@H](C)C3=O)CC[C@H](OC)[C@@]34[C@@H]5C[C@H]6[C@H](OC)[C@@H]5[C@](O)(C[C@@H]6OC)[C@](O)([C@@H](OC)[C@H]23)[C@@H]14 [MLA, reference compound]									no significant differences	no significant decrease in plasma glucose	no significant differences	decrease of plasma TNF-α by the α7 agonist (db/db mice [2]; [5]): blocked; increased insulin sensitivity induced by the α7 agonist (db/db mice [2]; [5]): abrogated; also recorded: suppressed; normalization of triglycerides by the α7 agonist (db/db mice [2]; [5]): blocked
